This note sets out measurements from patent US11746100B2 (GLOBAL BLOOD THERAPEUTICS, INC., priority 2020, dated 2023).

For the test, the target named is T1, human ferroportin (Homo sapiens, UniProt Q9NP59).
T1 construct: luciferase reporter (read with the Nano-Glo Luciferase Assay System); expressed in transfected cells; host or cells: CHO cells, stably transfected, expression induced with doxycycline
T1 sequence (Q9NP59 1-571): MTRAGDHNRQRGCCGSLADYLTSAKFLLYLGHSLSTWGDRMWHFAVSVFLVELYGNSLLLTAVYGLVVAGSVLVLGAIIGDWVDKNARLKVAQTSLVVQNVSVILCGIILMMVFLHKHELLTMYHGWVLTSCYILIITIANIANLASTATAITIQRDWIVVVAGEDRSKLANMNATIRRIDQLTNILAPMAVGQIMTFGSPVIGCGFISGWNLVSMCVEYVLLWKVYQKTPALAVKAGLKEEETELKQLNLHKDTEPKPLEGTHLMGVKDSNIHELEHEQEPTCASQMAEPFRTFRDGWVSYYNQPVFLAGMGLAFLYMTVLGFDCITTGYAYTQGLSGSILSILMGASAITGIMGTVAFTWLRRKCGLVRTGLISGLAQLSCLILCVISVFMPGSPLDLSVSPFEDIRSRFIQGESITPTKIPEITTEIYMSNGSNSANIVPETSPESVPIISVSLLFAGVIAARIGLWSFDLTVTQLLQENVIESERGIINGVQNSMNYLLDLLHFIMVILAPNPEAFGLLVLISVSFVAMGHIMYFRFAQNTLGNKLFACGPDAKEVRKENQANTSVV
Nature of the test: Biological in-vitro ferroportin internalization assay (luciferase reporter). The class given is cell-based. The note with it: average pEC50; stably-transfected CHO cell line expressing human ferroportin tagged to a luciferase reporter; 6 h incubation with test compound. Here is the method:
The protocol for this assay is generally as described in WO2018/128828, incorporated herein by reference in its entirety. Functional internalization of ferroportin protein was measured using a stably-transfected CHO cell line expressing the human ferroportin tagged to a luciferase reporter. Cells were plated for 24 h in the presence of ferric ammonium citrate (FAC). Ferroportin protein expression was induced with doxycycline for 24 h. The next day, the compounds were added. Test compounds were dissolved in DMSO. Cells were incubated with the test compounds for 6 h, and subsequently luciferase activity was measured using the Nano-Glo Luciferase Assay System and Glomax (Promega, Madison, Wis.). The average pEC50 was determined for the test compounds.
The compound `CCC(C)(C)NC(=O)CN(C)c1nc(-c2cc(OCCO)ccn2)nc2c1CCC2` [Compound 367, 2-({2-[4-(2-hydroxyethoxy)pyridin-2-yl]-5H,6H,7H-cyclopenta[d]pyrimidin-4-yl}(methyl)amino)-N-(2-methylbutan-2-yl)acetamide] showed a pEC50 of 8. In the case of `C[C@H](C(=O)Nc1cnn(C)c1)N(C)c1nc(-c2cc(OCCO)ccn2)nc2c1CCC2` [Compound 310, (2R)-2-({2-[4-(2-hydroxyethoxy)pyridin-2-yl]-5H,6H,7H-cyclopenta[d]pyrimidin-4-yl}(methyl)amino)-N-(1-methyl-1H-pyrazol-4-yl)propanamide], the pEC50 was found to be 7.4. Consider `CN(CC(=O)NC(C)(C)C)c1nc(-c2cn(C)cn2)nc2c1CCC2` [Compound 125, N-tert-butyl-2-{methyl[2-(1-methyl-1H-imidazol-4-yl)-5H,6H,7H-cyclopenta[d]pyrimidin-4-yl]amino}acetamide], for which the pEC50 is recorded as 7.5. `CC(C)[C@H](C(=O)NC(C)(C)C)N(C)c1nc(-c2ccccn2)nc2c1CCC2` [Compound 114, (2R)—N-tert-butyl-3-methyl-2-{methyl[2-(pyridin-2-yl)-5H,6H,7H-cyclopenta[d]pyrimidin-4-yl]amino}butanamide] yielded a pEC50 of 7.6. The figure for `CN(Cc1nc2ccccc2o1)c1nc(-c2ccccn2)nc2c1CCC2` [Compound 82, N-[(1,3-benzoxazol-2-yl)methyl]-N-methyl-2-(pyridin-2-yl)-5H,6H,7H-cyclopenta[d]pyrimidin-4-amine] is 6.8; for `CN(CC(=O)NC(C)(C)C)c1nc(-c2cc(OCCN3CCOCC3)ccn2)nc2c1CCC2` [Compound 460, N-tert-butyl-2-[methyl(2-{4-[2-(morpholin-4-yl)ethoxy]pyridin-2-yl}-5H,6H,7H-cyclopenta[d]pyrimidin-4-yl)amino]acetamide] it is 8.2; for `C[C@H](C(=O)NC1CC(F)(F)C1)N(C)c1nc(-c2ccccn2)nc2c1CCC2` [Compound 109, (2R)—N-(3,3-difluorocyclobutyl)-2-{methyl[2-(pyridin-2-yl)-5H,6H,7H-cyclopenta[d]pyrimidin-4-yl]amino}propanamide] it is 7. As for `Cc1ccc(-c2nc3c(c(N(C)CC(=O)NC(C)(C)C)n2)CCC3)nc1` [Compound 104, N-tert-butyl-2-{methyl[2-(5-methylpyridin-2-yl)-5H,6H,7H-cyclopenta[d]pyrimidin-4-yl]amino}acetamide], the figure is 7.2. The figure for `CC(C)NC(=O)CN(C)c1nc(-c2cc(OCCN3CCSCC3)ccn2)nc2c1CCC2` [Compound 505, 2-[methyl(2-{4-[2-(thiomorpholin-4-yl)ethoxy]pyridin-2-yl}-5H,6H,7H-cyclopenta[d]pyrimidin-4-yl)amino]-N-(propan-2-yl)acetamide] is 8.8; for `CN(CC(=O)N1CCCCC1)c1nc(-c2cc(OCCO)ccn2)nc2c1CCC2` [Compound 263, 2-({2-[4-(2-hydroxyethoxy)pyridin-2-yl]-5H,6H,7H-cyclopenta[d]pyrimidin-4-yl}(methyl)amino)-1-(piperidin-1-yl)ethan-1-one] it is 8. In turn, `COc1ccnc(-c2nc3c(c(N(C)CC(=O)N[C@H]4CCC[C@@H]4O)n2)CCC3)c1` (stereo in doubt) [Compound 173, N-[(1S,2S)-2-hydroxycyclopentyl]-2-{[2-(4-methoxypyridin-2-yl)-5H,6H,7H-cyclopenta[d]pyrimidin-4-yl](methyl)amino}acetamide] registered a pEC50 of 6.8. Turning to `CN(CC(=O)NC1CCOCC1)c1nc(-c2cc(OCCO)ccn2)nc2c1CCC2` [Compound 140, 2-({2-[4-(2-hydroxyethoxy)pyridin-2-yl]-5H,6H,7H-cyclopenta[d]pyrimidin-4-yl}(methyl)amino)-N-(oxan-4-yl)acetamide], the pEC50 is recorded as 7. Consider `COc1ccc(N(C)C(=O)CN(C)c2nc(-c3cc(OCCO)ccn3)nc3c2CCC3)cc1` [Compound 334, 2-({2-[4-(2-hydroxyethoxy)pyridin-2-yl]-5H,6H,7H-cyclopenta[d]pyrimidin-4-yl}(methyl)amino)-N-(4-methoxyphenyl)-N-methylacetamide], for which the negative logarithm of the EC50 (pEC50) is 7.2.

Compound `CN1CCC[C@@H](Oc2ccnc(-c3nc4c(c(N(C)CC(=O)NC(C)(C)C)n3)CCC4)c2)C1` [Compound 489, N-tert-butyl-2-{methyl[2-(4-{[(3R)-1-methylpiperidin-3-yl]oxy}pyridin-2-yl)-5H,6H,7H-cyclopenta[d]pyrimidin-4-yl]amino}acetamide] registered a pEC50 of 8.2. For the compound `Cc1ccc(NC(=O)CN(C)c2nc(-c3cc(OCCO)ccn3)nc3c2CCC3)nn1` [Compound 286, 2-({2-[4-(2-hydroxyethoxy)pyridin-2-yl]-5H,6H,7H-cyclopenta[d]pyrimidin-4-yl}(methyl)amino)-N-(6-methylpyridazin-3-yl)acetamide], the pEC50 came to 7.5. `COc1cccc2c1CCN(c1nc(-c3ccccn3)nc3c1CCC3)CC2` [Compound 3, 6-methoxy-3-[2-(pyridin-2-yl)-5H,6H,7H-cyclopenta[d]pyrimidin-4-yl]-2,3,4,5-tetrahydro-1H-3-benzazepine] displayed a pEC50 of 6.8. As for `COc1cc(-c2nc3c(c(N(C)CC(=O)NC(C)(C)C)n2)CCC3)ncc1C` [Compound 192, N-tert-butyl-2-{[2-(4-methoxy-5-methylpyridin-2-yl)-5H,6H,7H-cyclopenta[d]pyrimidin-4-yl](methyl)amino}acetamide], the figure is 6.5.

The compound `CN(C)CCOc1ccnc(-c2nc3c(c(N(C)CC(=O)N4CCCC4)n2)CCC3)c1` [Compound 417, 2-[(2-{4-[2-(dimethylamino)ethoxy]pyridin-2-yl}-5H,6H,7H-cyclopenta[d]pyrimidin-4-yl)(methyl)amino]-1-(pyrrolidin-1-yl)ethan-1-one] yielded a pEC50 of 7.1.

Compound `CN(C)CCOc1ccnc(-c2nc3c(c(N(C)CC(=O)NC(C)(C)C)n2)CCC3)c1` [Compound 348, N-tert-butyl-2-[(2-{4-[2-(dimethylamino)ethoxy]pyridin-2-yl}-5H,6H,7H-cyclopenta[d]pyrimidin-4-yl)(methyl)amino]acetamide] registered a pEC50 of 8.0.

For `CN(CC(=O)NC(C)(C)C)c1nc(-c2cncn2CCO)nc2c1CCC2` [Compound 196, N-tert-butyl-2-({2-[1-(2-hydroxyethyl)-1H-imidazol-5-yl]-5H,6H,7H-cyclopenta[d]pyrimidin-4-yl}(methyl)amino)acetamide], the pEC50 came out at 5.6. Regarding `CN(CC(=O)Nc1cccc(F)c1)c1nc(-c2cc(OCCN3CCCC3)ccn2)nc2c1CCC2` [Compound 252, N-(3-fluorophenyl)-2-[methyl(2-{4-[2-(pyrrolidin-1-yl)ethoxy]pyridin-2-yl}-5H,6H,7H-cyclopenta[d]pyrimidin-4-yl)amino]acetamide], the pEC50 turned out to be 7.9. The figure for `C[C@H](CN(C)C)Oc1ccnc(-c2nc3c(c(N(C)CC(=O)NC(C)(C)C)n2)CCC3)c1` [Compound 406, N-tert-butyl-2-{[2-(4-{[(2R)-1-(dimethylamino)propan-2-yl]oxy}pyridin-2-yl)-5H,6H,7H-cyclopenta[d]pyrimidin-4-yl](methyl)amino}acetamide] is 7.7; for `CN(CC(=O)NC(C)(C)C)c1nc(-c2cc(OCCN)ccn2)nc2c1CCC2` [Compound 483, 2-({2-[4-(2-aminoethoxy)pyridin-2-yl]-5H,6H,7H-cyclopenta[d]pyrimidin-4-yl}(methyl)amino)-N-tert-butylacetamide] it is 7.2; for `CC(C)(C)NC(=O)CNc1nc(-c2ncccn2)nc2c1CCC2` [Compound 33, N-tert-butyl-2-{[2-(pyrimidin-2-yl)-5H,6H,7H-cyclopenta[d]pyrimidin-4-yl]amino}acetamide] it is 5.7. `CN1CC[C@@H](Oc2ccnc(-c3nc4c(c(N(C)CC(=O)NC5(C(F)(F)F)CC5)n3)CCC4)c2)C1` [Compound 487, 2-{methyl[2-(4-{[(3R)-1-methylpyrrolidin-3-yl]oxy}pyridin-2-yl)-5H,6H,7H-cyclopenta[d]pyrimidin-4-yl]amino}-N-[1-(trifluoromethyl)cyclopropyl]acetamide] had a negative-log EC50 (pEC50) of 7.5.

`CN(CC(=O)N1CCC(F)(F)CC1)c1nc(-c2cc(OCC(C)(C)O)ccn2)nc2c1CCC2` [Compound 391, 1-(4,4-difluoropiperidin-1-yl)-2-({2-[4-(2-hydroxy-2-methylpropoxy)pyridin-2-yl]-5H,6H,7H-cyclopenta[d]pyrimidin-4-yl}(methyl)amino)ethan-1-one] yielded a pEC50 of 7.7. As for `O=C1CCN(c2nc(-c3ccccn3)nc3c2CCC3)CCN1` [Compound 50, 1-[2-(pyridin-2-yl)-5H,6H,7H-cyclopenta[d]pyrimidin-4-yl]-1,4-diazepan-5-one], the figure is 5.6.
